The target in series [1] is T1, AKR1C3 (Homo sapiens, UniProt P42330).
T1 sequence (P42330 1-323): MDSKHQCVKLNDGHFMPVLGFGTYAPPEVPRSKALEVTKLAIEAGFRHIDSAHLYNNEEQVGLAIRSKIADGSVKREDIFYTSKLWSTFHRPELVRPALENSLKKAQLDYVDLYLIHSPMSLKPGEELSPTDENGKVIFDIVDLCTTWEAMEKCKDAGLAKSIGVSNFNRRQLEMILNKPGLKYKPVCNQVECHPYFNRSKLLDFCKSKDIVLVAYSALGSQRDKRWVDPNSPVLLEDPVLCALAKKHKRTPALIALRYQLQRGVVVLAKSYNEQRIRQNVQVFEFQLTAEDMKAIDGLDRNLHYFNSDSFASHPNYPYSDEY
The series can be described thus: cell-based.
Method: AKR1C3 expression was checked by Western blot to ensure that the cells over-express AKR1C3. […] Medium was changed to RPMI+1% csFBS without phenol red and maintained in this medium for 3 days to reduce basal hormone levels. […] The data was plotted in SigmaPlot (Systat Software Inc.) and the IC50 values for inhibitors were calculated.
HEK-293 cells stably transfected with AKR1C3 were plated in 24 well plates and were maintained in RPMI+1% csFBS without phenol red for 2 days to reduce the basal steroid levels.

Series [2] can be described thus: Liver microsome incubation (HLM Phase I and Phase I + II), LC-MS/MS. Format: in vitro ADME, human. To be noted: for microsomal CLint: human, human liver microsomes. As for the experimental part: Stock solutions of prespective AKR1C3 inhibitors were prepared in DMSO at 5 mM and were incubated with liver microsomes (0.1 mg/mL). Incubations were conducted at 37° C. in a shaking water bath for 10 minutes (microsomes). Incubation durations were selected based on time course study (microsomes) or published literature (recombinant enzymes). Prepared samples were analyzed using LC-MS/MS.
For orientation: Liver microsomes are a subcellular fraction often used to study metabolism.

Series [3] deals with ER-β (Homo sapiens, UniProt Q92731). Briefly: ER-β ligand binding domain competitive binding with [3H]Estradiol.
Series [4] has as its target T2, ER-beta (Homo sapiens, UniProt Q92731).
T2 construct: expressed in transfected cells; host or cells: HEK-293
Briefly: ER-beta transactivation (ERE-LUC luciferase) in HEK-293 cells.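 As to all read-outs here: HEK-293 cells transiently transfected with an ER-β expression plasmid and ERE-LUC reporter, firefly luciferase read-out normalized to co-transfected Renilla luciferase.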 It counts as cell-based. The note with it: for EC50: drug alone, read-out: Agonist ER-β; for IC50 / Antagonist ER-β, % of E2: antagonist mode; for IC50: in combination with estradiol, read-out: Antagonist ER-β.

In series [5] the target is T1, AKR1C3. The series can be described thus: Purified AKR1C3 enzyme assay, [14C]-A'dione to testosterone, TLC based. It counts as biochemical. The arrangement: GST (N); made in house; host or cells: bacterial culture, IPTG induced (E. coli BL21-DE3 is named only for the crystallography preparation). As for the experimental part:
Perkin Elmer; […] American Radiolabeled Chemicals, St. Louis, Mo.). The reaction was stopped by the addition of 400 μl ethyl acetate, vortexed, and spun for […] at 2000 rpm. The upper layer was transferred to a new tube and air dried. The pellet was resuspended in 25 μl of methanol, spotted on TLC plates and fractionated in TLC chamber with 3:1 chloroform:ethyl acetate. Once the mobile phase reached the top, the plates were dried and exposed to a phosphoimager screen overnight. […] Perkin Elmer) was incubated at 37° C. for 60 min. The reaction was stopped by the addition of 400 μl ethyl acetate, vortexed, and spun for […] at 2000 rpm. The upper layer was transferred to a new tube and air dried. The pellet was resuspended in 25 μl of methanol, spotted on TLC plates and fractionated in TLC chamber with 3:1 chloroform:ethyl acetate. Once the mobile phase reached the top, the plates were dried and exposed to a phosphoimager screen overnight.

The target of series [6] is T3, ER-alpha (Homo sapiens, UniProt P03372).
T3 construct: expressed in transfected cells; host or cells: HEK-293
T3 sequence (P03372 1-595): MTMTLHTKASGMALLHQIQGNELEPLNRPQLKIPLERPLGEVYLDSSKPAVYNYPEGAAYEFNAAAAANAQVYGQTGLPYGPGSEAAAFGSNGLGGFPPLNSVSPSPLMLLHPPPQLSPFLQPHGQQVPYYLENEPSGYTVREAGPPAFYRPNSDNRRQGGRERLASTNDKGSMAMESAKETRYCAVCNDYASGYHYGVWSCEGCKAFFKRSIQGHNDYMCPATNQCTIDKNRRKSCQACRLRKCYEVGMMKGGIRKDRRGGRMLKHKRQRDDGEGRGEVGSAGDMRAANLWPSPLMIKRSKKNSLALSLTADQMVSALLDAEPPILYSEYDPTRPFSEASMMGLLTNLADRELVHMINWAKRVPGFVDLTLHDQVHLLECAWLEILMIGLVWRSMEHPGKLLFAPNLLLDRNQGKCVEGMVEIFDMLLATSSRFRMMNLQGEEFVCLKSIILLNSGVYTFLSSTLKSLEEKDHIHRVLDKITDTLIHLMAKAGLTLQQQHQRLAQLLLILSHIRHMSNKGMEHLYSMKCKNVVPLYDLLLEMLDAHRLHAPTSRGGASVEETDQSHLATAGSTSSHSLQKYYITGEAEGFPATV
The series can be described thus: ER-alpha transactivation (ERE-LUC luciferase) in HEK-293 cells.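 As to all read-outs here: HEK-293 cells co-transfected with an ER-alpha expression plasmid, an ERE-driven firefly luciferase reporter and a CMV Renilla control, with the firefly signal normalized to Renilla.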 Format: cell-based. To be noted: for EC50 / Agonist ER-α, % of E2: agonist mode; for EC50: drug alone, read-out: Agonist ER-α; for IC50: in combination with estradiol, read-out: Antagonist ER-α.

Setting [7] is: HLM Phase I + II, read-out: HLM Phase I + II CLint.
Setting [8] is: read-out: % inhibition from control HSD-5 (10 uM).
Where [9] appears, read: 10 μM inhibitor, purified AKR1C3 TLC based enzyme assay, read-out: AKR1C3 inhibition at 10 μM.

Values joined by “and” are separate entries in the source; they are usually repeats but may differ in a detail not shown here. Equal values may be shown once. Read-outs that look alike come from different tables or passages of the source.

By Ki is commonly meant a measure of affinity in units of concentration, obtained from inhibition or displacement. One may read the inhibition as the share of the control response that was lost under treatment.

T2 sequence (Q92731 whole entry, species assumed): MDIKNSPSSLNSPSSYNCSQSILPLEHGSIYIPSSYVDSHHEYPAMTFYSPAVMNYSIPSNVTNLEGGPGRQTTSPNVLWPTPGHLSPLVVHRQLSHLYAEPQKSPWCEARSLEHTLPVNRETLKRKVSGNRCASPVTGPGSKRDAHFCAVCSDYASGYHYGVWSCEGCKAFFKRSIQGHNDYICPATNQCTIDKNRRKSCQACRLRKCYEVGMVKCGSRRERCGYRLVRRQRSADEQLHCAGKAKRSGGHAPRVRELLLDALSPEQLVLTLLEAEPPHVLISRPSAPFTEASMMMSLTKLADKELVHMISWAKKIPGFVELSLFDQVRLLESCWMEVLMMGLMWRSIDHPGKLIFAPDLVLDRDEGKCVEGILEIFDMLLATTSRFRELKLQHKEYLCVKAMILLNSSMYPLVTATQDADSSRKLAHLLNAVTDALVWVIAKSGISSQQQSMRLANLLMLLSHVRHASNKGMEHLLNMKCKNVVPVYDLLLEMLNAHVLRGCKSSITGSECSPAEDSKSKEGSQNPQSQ
Sequence of ER-β (Q92731 264-498 limits assumed, species assumed): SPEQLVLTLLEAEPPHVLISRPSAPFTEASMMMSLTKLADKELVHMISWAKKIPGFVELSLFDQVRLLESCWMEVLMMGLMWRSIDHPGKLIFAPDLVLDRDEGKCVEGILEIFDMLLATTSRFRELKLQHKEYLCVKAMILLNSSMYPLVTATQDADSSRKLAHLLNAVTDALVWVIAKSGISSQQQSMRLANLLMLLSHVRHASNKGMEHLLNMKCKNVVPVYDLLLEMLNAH

In series [1], `COc1cc(C=CC(=O)O)cc(OC)c1OC` [3,4,5 trimethoxy cinnamic acid, reference compound] returned an IC50 of over 10000 nM.

As to `O=c1c2ccc(O)cc2c(-c2ccccc2)cn1-c1ccc(O)cc1` [Compound 15a, 6-hydroxy-2-(4-hydroxyphenyl)-4-phenylisoquinolin-1(2H)-one], in series [2] (HLM Phase I), the “HLM Phase I T-1/2” value was 152.8 min. Also, the “HLM Phase I + II T-1/2” value in series [2] (HLM Phase I + II) was 23.3 min. Moreover, the microsomal CLint was determined as 29.7 µL/min/mg in series [2] (setting [7]) and 4.5 µL/min/mg in series [2] (HLM Phase I, read-out: HLM Phase I CLint). The compound further returned a Ki in series [3] of 130 nM. Also, the EC50 in series [4] (agonist mode) was over 10000 nM. In addition, the IC50 in series [4] is 918 nM; in series [1] it was 16100 nM. The inhibition at 10 µM in series [5] (setting [8]) turned out to be 0%.

Regarding `C/C=C/c1cn(-c2ccc(O)cc2)c(=O)c2c(O)cc(O)cc12` [Compound 15i], the Ki in series [3] came to 1.66 nM. Moreover, the EC50 in series [6] and in series [4] (agonist mode) was over 10000 nM each time. Besides, the IC50 in series [6] (antagonist mode) is 1970 nM and 1790 nM; in series [4] it was 32.2 nM and 66.3 nM. Moreover, in series [5] (setting [8]), the inhibition at 10 µM stood at 10%.

For `COc1ccc2c(=O)n(-c3ccc(CO)c(OC)c3)cc(-c3ccc(C(F)(F)F)cc3)c2c1` [Compound 25, 2-(4-(hydroxymethyl)-3-methoxyphenyl)-6-methoxy-4-(4-(trifluoromethyl)phenyl)isoquinolin-1(2H)-one], in series [5] (setting [9]), the inhibition at 10 µM was determined as 0%.

`CNS(=O)(=O)c1ccc(-c2cn(-c3ccc(O)cc3)c(=O)c3ccc(O)cc23)cc1` [Compound 36, 4-(6-hydroxy-2-(4-hydroxyphenyl)-1-oxo-1,2-dihydroisoquinolin-4-yl)-N-methylbenzenesulfonamide]: the EC50 in series [6] and in series [4] (agonist mode) was over 10000 nM in each case. The IC50 in series [6] (antagonist mode) is over 10000 nM. Further, the inhibition at 10 µM in series [5] (setting [9]) and in series [5] (setting [8]) was 20% throughout.

With `CS(=O)(=O)c1ccc(-c2cn(-c3ccc(O)cc3)c(=O)c3ccc(O)cc23)cc1` [Compound 37, 6-hydroxy-2-(4-hydroxyphenyl)-4-(4-(methylsulfonyl)phenyl)isoquinolin-1(2H)-one], the “HLM Phase I T-1/2 (min)” value in series [2] (HLM Phase I) is recorded as “stable”. For the same compound, the “HLM Phase I + II T-1/2” value in series [2] (HLM Phase I + II) stood at 3.8 min. In addition, the microsomal CLint in series [2] (setting [7]) amounted to 183 µL/min/mg. Moreover, the EC50 in series [6] and in series [4] (agonist mode) was over 10000 nM each time. Also, the IC50 in series [6] (antagonist mode) was over 10000 nM. The inhibition at 10 µM in series [5] (setting [9]) and in series [5] (setting [8]) was 45% each time.

Take `O=C(O)c1ccc(-c2cn(-c3ccc(O)cc3)c(=O)c3ccc(O)cc23)cc1` [Compound 43, 4-(6-hydroxy-2-(4-hydroxyphenyl)-1-oxo-1,2-dihydroisoquinolin-4-yl)benzoic acid]: the EC50 in series [6] and in series [4] (agonist mode) was over 10000 nM in each case. In addition, the IC50 in series [6] (antagonist mode) and in series [4] was over 10000 nM each time. Besides, the inhibition at 10 µM in series [5] (setting [9]) and in series [5] (setting [8]) was 42% in each case.

For the compound `O=c1c2ccc(O)cc2c(-c2cc(F)c(F)c(F)c2)cn1-c1ccc(O)cc1` [Compound 79, 6-hydroxy-2-(4-hydroxyphenyl)-4-(3,4,5-trifluorophenyl)isoquinolin-1(2H)-one], in series [6] (@1000 nM), the “Agonist ER-α, % of E2” value is 32.6% of E2 @1000 nM. Besides, the “Antagonist ER-α, % of E2” value in series [6] (antagonist mode, @10k nM) is reported as 51% of E2 @10k nM. Moreover, the “Agonist ER-β, % of E2” value in series [4] (agonist mode, @1000 nM) is listed as 45.0% of E2 @1000 nM. For the same compound, in series [4] (@10k nM), the “Antagonist ER-β, % of E2” value is 45.3% of E2 @10k nM. Besides, the inhibition at 10 µM in series [5] (setting [9]) and in series [5] (setting [8]) was 44% each time.

`N#Cc1cc(O)cc2c(-c3cc(F)c(F)c(F)c3)cn(-c3ccc(O)cc3)c(=O)c12` [Compound 85, 6-hydroxy-2-(4-hydroxyphenyl)-1-oxo-4-(3,4,5-trifluorophenyl)-1,2-dihydroisoquinoline-8-carbonitrile]: in series [6] (@10k nM), the “Agonist ER-α, % of E2” value was 36.5% of E2 @10k nM. For the same compound, the IC50 in series [6] (antagonist mode) was over 10000 nM; in series [1] it was 141 nM. Further, the EC50 in series [4] (agonist mode) is over 10000 nM. Moreover, the “Antagonist ER-β, % of E2” value in series [4] (@1000 nM) was 59.7% of E2 @1000 nM. Also, the inhibition at 10 µM in series [5] (setting [9]) and in series [5] (setting [8]) was 86% each time.

Consider `COC(=N)c1cc(O)cc2c(-c3cc(F)c(F)c(F)c3)cn(-c3ccc(O)cc3)c(=O)c12` [Compound 100, Methyl 6-hydroxy-2-(4-hydroxyphenyl)-1-oxo-4-(3,4,5-trifluorophenyl)-1,2-dihydroisoquinoline-8-carbimidate], for which the inhibition at 10 µM in series [5] (setting [9]) and in series [5] (setting [8]) was 20% in each case.

Consider `NC(=O)c1cc(O)cc2c(-c3cc(F)c(F)c(F)c3)cn(-c3ccc(O)cc3)c(=O)c12` [Compound 100A, 6-hydroxy-2-(4-hydroxyphenyl)-1-oxo-4-(3,4,5-trifluorophenyl)-1,2-dihydroisoquinoline-8-carboxamide], for which the inhibition at 10 µM in series [5] (setting [9]) and in series [5] (setting [8]) was 0% in each case.

`N#Cc1cc(O)cc2c(-c3ccc(C(F)(F)F)c(F)c3)cn(-c3ccc(O)cc3)c(=O)c12` [Compound 102, 4-(3-Fluoro-4-(trifluoromethyl)phenyl)-6-hydroxy-2-(4-hydroxyphenyl)-1-oxo-1,2-dihydroisoquinoline-8-carbonitrile]: the inhibition at 10 µM in series [5] (setting [9]) and in series [5] (setting [8]) was 10% in each case.

With `COC(=N)c1cc(O)cc2c(-c3ccc(C(F)(F)F)c(F)c3)cn(-c3ccc(O)cc3)c(=O)c12` [Compound 102A, Methyl 4-(3-fluoro-4-(trifluoromethyl)phenyl)-6-hydroxy-2-(4-hydroxyphenyl)-1-oxo-1,2-dihydroisoquinoline-8-carbimidate], the inhibition at 10 µM in series [5] (setting [9]) and in series [5] (setting [8]) was 0% in each case.

`NC(=O)c1cc(O)cc2c(-c3ccc(C(F)(F)F)c(F)c3)cn(-c3ccc(O)cc3)c(=O)c12` [Compound 102B, 4-(3-fluoro-4-(trifluoromethyl)phenyl)-6-hydroxy-2-(4-hydroxyphenyl)-1-oxo-1,2-dihydroisoquinoline-8-carboxamide]: the inhibition at 10 µM in series [5] (setting [9]) and in series [5] (setting [8]) was 0% in each case.

On to `COC(=O)c1ccc(-n2ccc3cc(O)ccc3c2=O)cc1CBr` [Compound 104A, methyl 2-(bromomethyl)-4-(6-hydroxy-1-oxoisoquinolin-2(1H)-yl)benzoate], for which, in series [5] (setting [8]), the inhibition at 10 µM was determined as 5%.

In turn, `NC(=O)c1cccc(-n2cc(-c3ccc(C(F)(F)F)c(F)c3)c3cc(O)ccc3c2=O)c1` [Compound 214, 3-(4-(3-fluoro-4-(trifluoromethyl)phenyl)-6-hydroxy-1-oxoisoquinolin-2(1H)-yl)benzamide] came in with an IC50 in series [1] of 241 nM.

Take `O=C(O)c1cccc(Nc2ccc(C(F)(F)F)cc2)c1` [DKB-476-065]: the IC50 in series [1] was 154 nM.

Compound `C[C@@H]1O[C@@H](OC[C@H]2O[C@@H](Oc3c(-c4ccc(O)c(O)c4)oc4cc(O)cc(O)c4c3=O)[C@H](O)[C@@H](O)[C@@H]2O)[C@H](O)[C@H](O)[C@H]1O` [Rutin, reference compound] displayed an IC50 in series [1] of over 10000 nM.
